Patent EP4682145A1, “BENZOHETEROCYCLIC COMPOUND, AND PREPARATION METHOD THEREFOR AND USE THEREOF” (Cascade Pharmaceuticals, Inc., priority 2023, dated 2024)

Target: T1, human FFAR1 (GPR40) (Homo sapiens, UniProt O14842)
T1 construct: Flag; expressed in transfected cells; host or cells: HEK293T
Test: NFAT-RE-based reporter gene activity assay (Dual-Glo luciferase) for GPR40 agonistic activity in co-transfected HEK293T cells
Assay type: cell-based
Settings: 4-hour treatment; for Efficacy (%): class symbols
In short: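 Agonism read as NFAT-RE-driven firefly luciferase over Renilla control (Dual-Glo) after 4 h compound exposure, top concentration 1 µM, 10 half-log steps.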

T1 sequence (O14842 whole entry): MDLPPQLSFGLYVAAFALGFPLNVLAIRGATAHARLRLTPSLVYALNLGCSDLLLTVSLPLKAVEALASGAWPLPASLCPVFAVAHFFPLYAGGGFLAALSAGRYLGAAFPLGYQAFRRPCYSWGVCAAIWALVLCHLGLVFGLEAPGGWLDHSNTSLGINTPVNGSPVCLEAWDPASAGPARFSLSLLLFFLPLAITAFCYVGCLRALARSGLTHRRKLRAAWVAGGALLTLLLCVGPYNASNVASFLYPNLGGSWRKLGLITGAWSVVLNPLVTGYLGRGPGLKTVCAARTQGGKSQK

SMILES | EC50 [nM] | Efficacy (%)
COc1cccc(N2CCC(c3oc4cc([C@@H](CC(=O)O)C5CC5)ccc4c3-c3cc4ccccc4[nH]3)CC2)c1 [Compound 150] | 100 to 500 | †† (150 ≥ Efficacy (%) > 100)
COc1cccc(N2CCC(c3oc4cc([C@@H](CC(=O)O)C5CC5)ccc4c3-c3cc4cccc(F)c4[nH]3)CC2)c1 [Compound 151] | 100 to 500 | †† (150 ≥ Efficacy (%) > 100)
COc1cccc(N2CCC(c3oc4cc([C@@H](CC(=O)O)C5CC5)ccc4c3-c3nc4ccccc4s3)CC2)c1 [Compound 152] | 100 to 500 | †† (150 ≥ Efficacy (%) > 100)
COc1cccc(N2CCC(c3oc4cc([C@@H](CC(=O)O)C5CC5)ccc4c3-c3nc4ccccn4n3)CC2)c1 [Compound 153] | 100 to 500 | ††† (Efficacy (%) > 150)
COc1cccc(N2CCC(c3oc4cc([C@@H](CC(=O)O)C5CC5)ccc4c3-c3ccc4ccccc4n3)CC2)c1 [Compound 154] | 100 to 500 | ††† (Efficacy (%) > 150)
COc1cccc(N2CCC(c3oc4cc([C@@H](CC(=O)O)C5CC5)ccc4c3-c3ccc4cccc(F)c4n3)CC2)c1 [Compound 155] | 10 to 100 | ††† (Efficacy (%) > 150)
COc1ccc(F)c(N2CCC(c3oc4cc(C(CC(=O)O)C5CC5)ccc4c3-c3ccccc3)CC2)c1 (stereo not drawn) [Compound 156] | 100 to 500 | †† (150 ≥ Efficacy (%) > 100)
COc1ccc(F)c(N2CCC(c3oc4cc(C(CC(=O)O)C5CC5)ccc4c3-c3cccc(C)c3)CC2)c1 (stereo not drawn) [Compound 157] | 100 to 500 | ††† (Efficacy (%) > 150)
COc1ccc(F)c(N2CCC(c3oc4cc([C@@H](CC(=O)O)C5CC5)ccc4c3-c3cccc(C)c3)CC2)c1 [Compound 158] | 100 to 500 | †† (150 ≥ Efficacy (%) > 100)
COc1ccc(F)c(N2CCC(c3oc4cc(C(CC(=O)O)C5CC5)ccc4c3-c3ccccc3C)CC2)c1 (stereo not drawn) [Compound 159] | 100 to 500 | †† (150 ≥ Efficacy (%) > 100)
COc1ccc(F)c(N2CCC(c3oc4cc(C(CC(=O)O)C5CC5)ccc4c3-c3ccc(C)cc3)CC2)c1 (stereo not drawn) [Compound 160] | 100 to 500 | †† (150 ≥ Efficacy (%) > 100)
COc1ccc(F)c(N2CCC(c3oc4cc([C@@H](CC(=O)O)C5CC5)ccc4c3-c3ccc(C)cc3)CC2)c1 [Compound 161] | 100 to 500 | † (100 ≥ Efficacy (%) > 50)
CCc1ccc(-c2c(C3CCN(c4cc(OC)ccc4F)CC3)oc3cc(C(CC(=O)O)C4CC4)ccc23)cc1 (stereo not drawn) [Compound 162] | 100 to 500 | ††† (Efficacy (%) > 150)
COc1ccc(F)c(N2CCC(c3oc4cc(C(CC(=O)O)C5CC5)ccc4c3-c3ccc(C(C)C)cc3)CC2)c1 (stereo not drawn) [Compound 163] | 100 to 500 | †† (150 ≥ Efficacy (%) > 100)
COc1ccc(F)c(N2CCC(c3oc4cc(C(CC(=O)O)C5CC5)ccc4c3-c3cccc(C4CC4)c3)CC2)c1 (stereo not drawn) [Compound 164] | 100 to 500 | †† (150 ≥ Efficacy (%) > 100)
COc1ccc(F)c(N2CCC(c3oc4cc([C@H](CC(=O)O)C5CC5)ccc4c3-c3cccc(C(C)(C)C)c3)CC2)c1 [Compound 167] | 100 to 500 | †† (150 ≥ Efficacy (%) > 100)
COc1ccc(F)c(N2CCC(c3oc4cc([C@H](CC(=O)O)C5CC5)ccc4c3-c3ccc(C(C)(C)C)cc3)CC2)c1 [Compound 170] | 100 to 500 | †† (150 ≥ Efficacy (%) > 100)
COc1ccc(F)c(N2CCC(c3oc4cc(C(CC(=O)O)C5CC5)ccc4c3-c3cccc(Cl)c3)CC2)c1 (stereo not drawn) [Compound 171] | 100 to 500 | †† (150 ≥ Efficacy (%) > 100)
COc1ccc(F)c(N2CCC(c3oc4cc(C(CC(=O)O)C5CC5)ccc4c3-c3cccc(C(F)(F)F)c3)CC2)c1 (stereo not drawn) [Compound 172] | 100 to 500 | † (100 ≥ Efficacy (%) > 50)
COc1ccc(F)c(N2CCC(c3oc4cc([C@@H](CC(=O)O)C5CC5)ccc4c3-c3cccc(OC(F)(F)F)c3)CC2)c1 [Compound 173] | 100 to 500 | ††† (Efficacy (%) > 150)
COc1ccc(F)c(N2CCC(c3oc4cc(C(CC(=O)O)C5CC5)ccc4c3-c3cccc(C#N)c3)CC2)c1 (stereo not drawn) [Compound 174] | 100 to 500 | †† (150 ≥ Efficacy (%) > 100)
COc1ccc(F)c(N2CCC(c3oc4cc([C@@H](CC(=O)O)C5CC5)ccc4c3-c3ccc(C(C)O)cc3)CC2)c1 (stereo partly drawn) [Compound 175] | > 500 | †† (150 ≥ Efficacy (%) > 100)
COc1ccc(F)c(N2CCC(c3oc4cc([C@@H](CC(=O)O)C5CC5)ccc4c3-c3ccc(C(C)OC)cc3)CC2)c1 (stereo partly drawn) [Compound 176] | 100 to 500 | †† (150 ≥ Efficacy (%) > 100)
COc1ccc(F)c(N2CCC(c3oc4cc([C@@H](CC(=O)O)C5CC5)ccc4c3-c3ccc(C(C)(C)O)cc3)CC2)c1 [Compound 177] | 100 to 500 | †† (150 ≥ Efficacy (%) > 100)

SMILES | EC50 [nM] | Efficacy (%)
COc1ccc(F)c(N2CCC(c3oc4cc(C(CC(=O)O)C5CC5)ccc4c3-c3cccc(F)c3)CC2)c1 (stereo not drawn) [Compound 178] | 100 to 500 | †† (150 ≥ Efficacy (%) > 100)
COc1ccc(-c2c(C3CCN(c4cc(OC)ccc4F)CC3)oc3cc([C@@H](CC(=O)O)C4CC4)ccc23)cc1 [Compound 179] | 100 to 500 | ††† (Efficacy (%) > 150)
COc1ccc(F)c(N2CCC(c3oc4cc(C(CC(=O)O)C5CC5)ccc4c3-c3ccc(SC)cc3)CC2)c1 (stereo not drawn) [Compound 181] | 100 to 500 | †† (150 ≥ Efficacy (%) > 100)
COc1ccc(F)c(N2CCC(c3oc4cc(C(CC(=O)O)C5CC5)ccc4c3-c3ccc(S(=O)(=O)C(C)C)cc3)CC2)c1 (stereo not drawn) [Compound 183] | 100 to 500 | †† (150 ≥ Efficacy (%) > 100)
COc1ccc(F)c(N2CCC(c3oc4cc(C(CC(=O)O)C5CC5)ccc4c3-c3ccc(NC(C)C)cc3)CC2)c1 (stereo not drawn) [Compound 184] | 100 to 500 | † (100 ≥ Efficacy (%) > 50)
COc1ccc(F)c(N2CCC(c3oc4cc(C(CC(=O)O)C5CC5)ccc4c3-c3ccc(N(C)C(C)C)cc3)CC2)c1 (stereo not drawn) [Compound 185] | 100 to 500 | †† (150 ≥ Efficacy (%) > 100)
COc1ccc(F)c(N2CCC(c3oc4cc(C(CC(=O)O)C5CC5)ccc4c3-c3ccc(N(C(C)=O)C(C)C)cc3)CC2)c1 (stereo not drawn) [Compound 186] | 100 to 500 | † (100 ≥ Efficacy (%) > 50)
COc1ccc(F)c(N2CCC(c3oc4cc(C(CC(=O)O)C5CC5)ccc4c3-c3cccc(NC(C)C)c3)CC2)c1 (stereo not drawn) [Compound 187] | 100 to 500 | †† (150 ≥ Efficacy (%) > 100)
COc1ccc(F)c(N2CCC(c3oc4cc(C(CC(=O)O)C5CC5)ccc4c3-c3cccc(NCC(C)(C)C)c3)CC2)c1 (stereo not drawn) [Compound 188] | 100 to 500 | †† (150 ≥ Efficacy (%) > 100)
COc1ccc(F)c(N2CCC(c3oc4cc(C(CC(=O)O)C5CC5)ccc4c3-c3cccc(N(CC(C)(C)C)C(C)=O)c3)CC2)c1 (stereo not drawn) [Compound 190] | 100 to 500 | †† (150 ≥ Efficacy (%) > 100)
COc1ccc(F)c(N2CCC(c3oc4cc(C(CC(=O)O)C5CC5)ccc4c3-c3cccc(N(C(C)=O)C(C)C)c3)CC2)c1 (stereo not drawn) [Compound 191] | 100 to 500 | †† (150 ≥ Efficacy (%) > 100)
COc1ccc(F)c(N2CCC(c3oc4cc(C(CC(=O)O)C5CC5)ccc4c3-c3cccc(N4CCCC4(C)C)c3)CC2)c1 (stereo not drawn) [Compound 192] | 100 to 500 | †† (150 ≥ Efficacy (%) > 100)
COc1ccc(F)c(N2CCC(c3oc4cc(C(CC(=O)O)C5CC5)ccc4c3-c3cccc(-n4cccn4)c3)CC2)c1 (stereo not drawn) [Compound 193] | 100 to 500 | †† (150 ≥ Efficacy (%) > 100)
COc1ccc(F)c(N2CCC(c3oc4cc([C@@H](CC(=O)O)C5CC5)ccc4c3-c3ccc(C(=O)NCC(C)(C)C)cc3)CC2)c1 [Compound 198] | 100 to 500 | †† (150 ≥ Efficacy (%) > 100)
COc1ccc(F)c(N2CCC(c3oc4cc(C(CC(=O)O)C5CC5)ccc4c3-c3ccc(C(=O)N4CCCC4)cc3)CC2)c1 (stereo not drawn) [Compound 200] | 100 to 500 | †† (150 ≥ Efficacy (%) > 100)
COc1ccc(F)c(N2CCC(c3oc4cc(C(CC(=O)O)C5CC5)ccc4c3-c3ccc(C(=O)N(C)CC(C)(C)C)cc3)CC2)c1 (stereo not drawn) [Compound 202] | 100 to 500 | †† (150 ≥ Efficacy (%) > 100)
COc1ccc(Cl)c(N2CCC(c3oc4cc(C(CC(=O)O)C5CC5)ccc4c3-c3cccc(C(C)(C)C)c3)CC2)c1 (stereo not drawn) [Compound 203] | 100 to 500 | † (100 ≥ Efficacy (%) > 50)
COc1cc(OC)cc(N2CCC(c3oc4cc(C(CC(=O)O)C5CC5)ccc4c3-c3ccc(C(C)(C)C)cc3)CC2)c1 (stereo not drawn) [Compound 205] | 100 to 500 | † (100 ≥ Efficacy (%) > 50)
COc1cc(N2CCC(c3oc4cc(C(CC(=O)O)C5CC5)ccc4c3-c3ccc(C(C)(C)C)cc3)CC2)ccc1F (stereo not drawn) [Compound 206] | 100 to 500 | †† (150 ≥ Efficacy (%) > 100)
CC(C)(C)c1ccc(-c2c(C3CCN(c4ccc5c(c4)OCC5)CC3)oc3cc(C(CC(=O)O)C4CC4)ccc23)cc1 (stereo not drawn) [Compound 208] | 100 to 500 | ††† (Efficacy (%) > 150)
CC(C)(C)c1ccc(-c2c(C3CCN(c4ccc5ccoc5c4)CC3)oc3cc(C(CC(=O)O)C4CC4)ccc23)cc1 (stereo not drawn) [Compound 209] | 100 to 500 | †† (150 ≥ Efficacy (%) > 100)
Cc1cccc(-c2c(C3CCN(c4ccc5c(c4)OCO5)CC3)oc3cc(C(CC(=O)O)C4CC4)ccc23)c1 (stereo not drawn) [Compound 210] | 100 to 500 | †† (150 ≥ Efficacy (%) > 100)
COc1cccc(-c2c(C3CCN(c4ccc5c(c4)OCO5)CC3)oc3cc(C(CC(=O)O)C4CC4)ccc23)c1 (stereo not drawn) [Compound 211] | 100 to 500 | ††† (Efficacy (%) > 150)
CC(C)(C)c1ccc(-c2c(C3CCN(c4ccc5c(c4)OCO5)CC3)oc3cc(C(CC(=O)O)C4CC4)ccc23)cc1 (stereo not drawn) [Compound 212] | 100 to 500 | †† (150 ≥ Efficacy (%) > 100)
